# Measured values as given in patent US11077090B2, “Compounds and compositions and uses thereof” (Sunovion Pharmaceuticals Inc., priority 2016, dated 2021).
# Counter-ions that a name gives are not always drawn.
# Test system: compound-treated mice
# Assay: Neuropharmacological assay (SmartCube): behavioral activity signature and minimal effective dose
# Assay type: in vivo
# Settings: Mus musculus, ip, MED = dose having 50% or more total activity, read-out: Potency: minimal effective dose (MED), binned
# In short: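 Mice dosed i.p. 15 min before test, compound in N-methyl-2-pyrrolidone/PEG/propylene glycol, 3 doses; video-captured behavior matched to reference-drug signatures, giving per-class probabilities at most efficacious dose. MED from doses typically 0.3–30 mpk, defined as lowest dose with ≥50% total activity.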
row,SMILES,minimal effective dose [mg/kg]
1,"C[C@@H]1OCc2cc(F)ccc2[C@@H]1N.Cl (single isomer, unassigned) [Example 212]",10 to 30
2,"C[C@H]1OCc2cc(F)ccc2[C@@H]1N.Cl (single isomer, unassigned) [Example 213]",3 to 10
3,"CC[C@@H]1OCc2cccc(Cl)c2[C@@H]1N (single isomer, unassigned) [Example 218]",< 3
4,"CCC[C@H]1OCc2ccccc2[C@@H]1N (single isomer, unassigned) [Example 251]",3 to 10
5,"Cc1cccc2c1[C@@H](C)OC[C@H]2N (single isomer, unassigned) [Example 254]",3 to 10
6,"CC[C@@H]1OCc2ccccc2[C@@H]1N(C)C.Cl (single isomer, unassigned) [Example 260]",3 to 10
7,"CC[C@H]1OCc2ccccc2[C@@H]1N(C)C.Cl (single isomer, unassigned) [Example 261]",10 to 30
8,"Cl.N[C@H]1c2ccccc2CO[C@@H]1CF (single isomer, unassigned) [Example 276, cis-3-(fluoromethyl)isochroman-4-amine hydrochloride]",3 to 10
9,"C[C@@H]1OC[C@@H](N(C)C)c2ccccc21 (stereo in doubt) [Example 239, cis-N,N,1-trimethylisochroman-4-amine hydrochloride]",3 to 10

# Same assay, conditions: i.p. 15 min before test, most efficacious dose(s)
SMILES,AD: ADHD (probability of activity signature),AG: analgesic (probability of activity signature),AX: anxiolytic (probability of activity signature),CE: cognitive enhancer (probability of activity signature),DP: anti-depressant (probability of activity signature),MS: mood stabilizer (probability of activity signature),PS: anti-psychotic (probability of activity signature),SD: sedative hypnotic (probability of activity signature),UN: uncharacterized CNS activity (probability of activity signature)
"C[C@@H]1OCc2cc(F)ccc2[C@@H]1N.Cl (single isomer, unassigned) [Example 212]",+ (LOQ ≤ + <5%),++ (5% ≤ ++ <25%),++ (5% ≤ ++ <25%),+ (LOQ ≤ + <5%),+ (LOQ ≤ + <5%),+ (LOQ ≤ + <5%),+ (LOQ ≤ + <5%),+ (LOQ ≤ + <5%),++++ (50% ≤ ++++)
"C[C@H]1OCc2cc(F)ccc2[C@@H]1N.Cl (single isomer, unassigned) [Example 213]",+ (LOQ ≤ + <5%),++ (5% ≤ ++ <25%),++ (5% ≤ ++ <25%),++ (5% ≤ ++ <25%),++ (5% ≤ ++ <25%),+ (LOQ ≤ + <5%),++ (5% ≤ ++ <25%),+ (LOQ ≤ + <5%),+++ (25% ≤ +++ <50%)
"CC[C@@H]1OCc2cccc(Cl)c2[C@@H]1N (single isomer, unassigned) [Example 218]",+ (LOQ ≤ + <5%),+ (LOQ ≤ + <5%),++ (5% ≤ ++ <25%),++ (5% ≤ ++ <25%),+ (LOQ ≤ + <5%),+ (LOQ ≤ + <5%),++ (5% ≤ ++ <25%),+ (LOQ ≤ + <5%),++++ (50% ≤ ++++)
"CCC[C@H]1OCc2ccccc2[C@@H]1N (single isomer, unassigned) [Example 251]",++ (5% ≤ ++ <25%),+ (LOQ ≤ + <5%),++ (5% ≤ ++ <25%),+ (LOQ ≤ + <5%),+ (LOQ ≤ + <5%),++ (5% ≤ ++ <25%),++ (5% ≤ ++ <25%),++ (5% ≤ ++ <25%),++ (5% ≤ ++ <25%)
"Cc1cccc2c1[C@@H](C)OC[C@H]2N (single isomer, unassigned) [Example 254]",+ (LOQ ≤ + <5%),+ (LOQ ≤ + <5%),+ (LOQ ≤ + <5%),+ (LOQ ≤ + <5%),+ (LOQ ≤ + <5%),+ (LOQ ≤ + <5%),+ (LOQ ≤ + <5%),++ (5% ≤ ++ <25%),++ (5% ≤ ++ <25%)
"CC[C@@H]1OCc2ccccc2[C@@H]1N(C)C.Cl (single isomer, unassigned) [Example 260]",++ (5% ≤ ++ <25%),+ (LOQ ≤ + <5%),+ (LOQ ≤ + <5%),+ (LOQ ≤ + <5%),+ (LOQ ≤ + <5%),++ (5% ≤ ++ <25%),+ (LOQ ≤ + <5%),++ (5% ≤ ++ <25%),+ (LOQ ≤ + <5%)
"CC[C@H]1OCc2ccccc2[C@@H]1N(C)C.Cl (single isomer, unassigned) [Example 261]",++ (5% ≤ ++ <25%),+ (LOQ ≤ + <5%),+ (LOQ ≤ + <5%),+ (LOQ ≤ + <5%),++++ (50% ≤ ++++),+ (LOQ ≤ + <5%),+ (LOQ ≤ + <5%),++ (5% ≤ ++ <25%),++ (5% ≤ ++ <25%)
"Cl.N[C@H]1c2ccccc2CO[C@@H]1CF (single isomer, unassigned) [Example 276, cis-3-(fluoromethyl)isochroman-4-amine hydrochloride]",+ (LOQ ≤ + <5%),+ (LOQ ≤ + <5%),+ (LOQ ≤ + <5%),+ (LOQ ≤ + <5%),+ (LOQ ≤ + <5%),++ (5% ≤ ++ <25%),+ (LOQ ≤ + <5%),++ (5% ≤ ++ <25%),+ (LOQ ≤ + <5%)
"C[C@@H]1OC[C@@H](N(C)C)c2ccccc21 (stereo in doubt) [Example 239, cis-N,N,1-trimethylisochroman-4-amine hydrochloride]",++ (5% ≤ ++ <25%),++ (5% ≤ ++ <25%),++ (5% ≤ ++ <25%),++ (5% ≤ ++ <25%),++ (5% ≤ ++ <25%),+ (LOQ ≤ + <5%),++ (5% ≤ ++ <25%),+ (LOQ ≤ + <5%),+++ (25% ≤ +++ <50%)
